The values below come from ChEMBL document CHEMBL5512603, “Development of de-novo coronavirus 3-chymotrypsin-like protease (3CLpro) inhibitors since COVID-19 outbreak: A strategy to tackle challenges of persistent virus infection” (Eur J Med Chem, 2024).

SMILES strings stand for the structures.

Data set [1] deals with SARS-CoV-2. The data set can be described thus: Antiviral activity against SARS-CoV-2 Delta. The following applies: Severe acute respiratory syndrome coronavirus 2, Delta. The format is functional.
The target of data set [2] is T1, Replicase polyprotein 1ab (Severe acute respiratory syndrome coronavirus 2, UniProt P0DTD1). Nature of the data set: Inhibition of recombinant SARS-CoV2 6xHis-tag-Main protease containing modified HRV-3C expressed in Escherichia coli using Mca-AVLQSGFR-K(Dnp)K peptide substrate assessed as fluorescent intensity.
The target of data set [3] is T1, Replicase polyprotein 1ab. Nature of the data set: Inhibition of SARS-CoV-2 recombinant 3CLpro using fluorogenic substrate (Dabcyl-KTSAVLQ]SGFRK M-E.
Data set [4] addresses Protein cereblon/Replicase polyprotein 1ab (Severe acute respiratory syndrome coronavirus 2, UniProt P0DTD1+Q96SW2). Nature of the data set: PROTAC activity at SARS-CoV-2 Main protease/CRBN (unknown origin) in SARS-CoV-2 infected african green monkey Vero cell assessed as inhibition of virus-mediated cytopathic effect measured after 72 hrs. The format is cell-based. A general note: Damage to the host cells serves as the signal in cytopathic effect assays.

Data set [5] in a line: Oral bioavailability in Sprague-Dawley rat at 20 mg/kg. The format is ADME, organism-based. The following applies: in vivo.
For data set [6], the system named is SARS-CoV-2. Nature of the data set: Antiviral activity against SARS-CoV-2 infected in African green monkey Vero E6 cells at 0.1 MOI assessed as inhibition of virus induced cytopathic effect by CCK8 assay. The data set is classed as functional, organism-based. The note with it: Severe acute respiratory syndrome coronavirus 2, Vero C1008.
Data set [7] deals with SARS-CoV-2. The data set can be described thus: Antiviral activity against SARS-CoV-2 infected in HAPEpIC cells at 0.01 MOI assessed as reduction in viral RNA copies by RT-qPCR analysis. The following applies: Severe acute respiratory syndrome coronavirus 2. The data set is classed as functional, organism-based.
The nature of data set [8]: Bioavailability in Sprague-Dawley rat at 20 mg/kg, ip. The format is ADME, organism-based. The following applies: in vivo.
Data set [9] deals with SARS-CoV-2. Nature of the data set: Antiviral activity against wild type SARS-CoV-2 infected in African green monkey Vero E6 cells assessed as inhibition of virus induced cytopathic effect by MTT assay. The data set is classed as functional, organism-based. The note with it: Severe acute respiratory syndrome coronavirus 2, Vero C1008.
Data set [10] has as its system SARS-CoV-2. The data set can be described thus: Antiviral activity against SARS-CoV-2 Alpha infected in African green monkey Vero E6 cells assessed as inhibition of virus induced cytopathic effect by MTT assay. The note with it: Severe acute respiratory syndrome coronavirus 2, Alpha, Vero C1008. The data set is classed as functional, organism-based.
Data set [11] has as its system SARS-CoV-2. Nature of the data set: Antiviral activity against SARS-CoV-2 Beta infected in African green monkey Vero E6 cells assessed as inhibition of virus induced cytopathic effect by MTT assay. The data set is classed as functional, organism-based. The note with it: Severe acute respiratory syndrome coronavirus 2, Beta, Vero C1008.
Data set [12] has as its system SARS-CoV-2. Nature of the data set: Antiviral activity against SARS-CoV-2 Delta infected in African green monkey Vero E6 cells assessed as inhibition of virus induced cytopathic effect by MTT assay. The data set is classed as functional, organism-based. The following applies: Severe acute respiratory syndrome coronavirus 2, Delta, Vero C1008.
In data set [13] the test system is SARS-CoV-2. Nature of the data set: Antiviral activity against SARS-CoV-2 Omicron BA.1 infected in African green monkey Vero E6 cells assessed as inhibition of virus induced cytopathic effect by MTT assay. The data set is classed as functional, organism-based. The note with it: Severe acute respiratory syndrome coronavirus 2, Omicron BA.1, Vero C1008.
Data set [14] relates to SARS-CoV-2. Nature of the data set: Antiviral activity against SARS-CoV-2 Omicron BA.5 infected in African green monkey Vero E6 cells assessed as inhibition of virus induced cytopathic effect by MTT assay. The format is functional, organism-based. The note with it: Severe acute respiratory syndrome coronavirus 2, Omicron BA.5, Vero C1008.
The nature of data set [15]: Cmax in cynomolgus monkey at 5 mg/kg, po. The format is ADME, organism-based, Macaca fascicularis. The note with it: in vivo.
A short description of data set [16]: Tmax in cynomolgus monkey at 5 mg/kg, po. The format is ADME, organism-based, Macaca fascicularis. The following applies: in vivo.
The nature of data set [17]: AUC (0 to last) in cynomolgus monkey at 5 mg/kg, po. The data set is classed as ADME, organism-based, Macaca fascicularis. The following applies: in vivo.
Data set [18] can be described thus: Half life in cynomolgus monkey at 5 mg/kg, po. The note with it: in vivo. The format is ADME, organism-based, Macaca fascicularis.
Data set [19] relates to SARS-CoV-2. The data set can be described thus: Antiviral activity against SARS-CoV-2 infected in African green monkey Vero E6 cells assessed as inhibition of viral replication incubated by plaque reduction assay. The format is functional, organism-based. The note with it: Severe acute respiratory syndrome coronavirus 2, Vero C1008. For orientation: Plaque reduction counts the foci of infection that form in a cell layer.

In data set [20] the target is T1, Replicase polyprotein 1ab. Nature of the data set: Inhibition of recombinant SARS-CoV-2 3CLp using fluorogenic substrate by microplate reader.
Data set [21] is described as follows: Oral bioavailability in Sprague-Dawley rat at 10 mg/kg. The format is ADME, organism-based. The following applies: in vivo.
Data set [22] deals with T1, Replicase polyprotein 1ab. Nature of the data set: Inhibition of SARS-CoV-2 3CLp using fluorescent substrate by FRET assay.
Data set [23] deals with SARS-CoV-2. The data set can be described thus: Antiviral activity against SARS-CoV-2 infected in Caco-2-ACE2 assessed as inhibition of viral replication. The data set is classed as functional, organism-based. The note with it: Severe acute respiratory syndrome coronavirus 2, Caco-2-ACE2.
In data set [24] the test system is SARS-CoV-2. The data set can be described thus: Antiviral activity against SARS-CoV-2 infected in African green monkey Vero cells. The format is functional, organism-based. The note with it: Severe acute respiratory syndrome coronavirus 2, Vero.

Chain of Protein cereblon/Replicase polyprotein 1ab (Q96SW2 whole entry, other chains not shown): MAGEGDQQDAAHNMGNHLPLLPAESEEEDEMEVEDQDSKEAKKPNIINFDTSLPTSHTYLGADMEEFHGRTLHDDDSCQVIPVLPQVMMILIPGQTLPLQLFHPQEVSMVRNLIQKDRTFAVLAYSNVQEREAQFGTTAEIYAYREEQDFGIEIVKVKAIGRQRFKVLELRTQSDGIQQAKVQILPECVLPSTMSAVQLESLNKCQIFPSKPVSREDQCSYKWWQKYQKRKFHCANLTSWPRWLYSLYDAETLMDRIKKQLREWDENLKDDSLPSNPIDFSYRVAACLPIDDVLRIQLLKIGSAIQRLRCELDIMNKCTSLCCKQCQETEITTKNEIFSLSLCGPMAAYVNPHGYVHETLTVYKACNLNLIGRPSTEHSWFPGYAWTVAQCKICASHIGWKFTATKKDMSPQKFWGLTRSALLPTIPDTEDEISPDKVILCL

By EC90 is commonly meant the concentration at which the effect reaches the 90% level. Consider `N#C[C@H](C[C@@H]1CCCNC1=O)NC(=O)[C@H](CC1CC1)NC(=O)c1cc2cccc(Cl)c2[nH]1` [POMOTRELVIR], for which the EC90 in data set [1] amounted to 78 nM.
By IC50 is commonly meant the point on the concentration scale where inhibition reaches its midpoint. Consider `COC(=O)Cn1sc2ccccc2c1=O`, for which the IC50 in [2] was 2830 nM.
`CNC(=O)c1cc(C)cc([N+](=O)[O-])c1N1CC[C@]2(CCN(C(=O)c3cncc4cc(O)ccc34)C2)C1`: in [3], the IC50 was 49500 nM.
Usually EC50 stands for the concentration that produces a half-maximal response. For the compound `Cc1c(COC(=O)N[C@@H](CC(C)C)C(=O)N[C@@H](C[C@@H]2CCNC2=O)C(O)S(=O)(=O)O)nnn1CCOCCOCCOCCC(=O)Nc1cccc2c1C(=O)N(C1CCC(=O)NC1=O)C2=O` (stereo partly drawn), the EC50 in [4] amounted to 2150 nM.
One may read the bioavailability as dose-corrected exposure relative to a reference, in per cent. For `O=C[C@@H](C[C@H]1CCNC1=O)NC(=O)[C@H]1[C@@H]2CCC[C@@H]2CN1C(=O)COc1ccc(Cl)cc1Cl`, the bioavailability in data set [5] is 14.6%; in data set [8], 76.2%. Further, the values for the EC50 in data set [6] and in [7] were 540 nM and 1.1 nM, respectively.
For `CNC(=O)[C@@H](Cc1cccc(F)c1)NC(=O)C1CN(C(=O)c2cncc3cccc(O)c23)CCN1Cc1ccc(Cl)cc1Cl` (stereo partly drawn), the IC50 in data set [3] is 165000 nM.
The term Cmax denotes the highest concentration seen after dosing. A word on the Tmax: it is the time at which the peak concentration occurs. Usually AUC(0-t) stands for exposure summed from dosing to a finite time, without extrapolation to infinity. The half-life is how long it takes for the measured level to halve. Turning to `O=C(NC1CCCC1)C(=O)[C@H](C[C@@H]1CCNC1=O)NC(=O)[C@@H]1[C@H]2CCC[C@H]2CN1C(=O)[C@@H](NC(=O)C(F)(F)F)C1CCCCC1`, the half-maximal effective concentration (EC50) in [9] turned out to be 95 nM; in data set [10], 130 nM; in [11] it was 277 nM; in data set [12] it was 97 nM; in data set [13], 86 nM; in data set [14], 130 nM. Also, the peak level in [15] (Cmax) was 102 nM. Moreover, the time to peak (Tmax) in data set [16] is 1.5 h. The AUC(0-t) in [17] came to 0.458 µM·h. Moreover, the half-life in [18] is 14.9 h.
Regarding `O=C1NCC[C@H]1C[C@H](NC(=O)[C@@H]1[C@H]2CCC[C@H]2CN1C(=O)COc1ccc(Cl)cc1Cl)C(=O)CF`, in data set [19], the EC50 came to 240 nM. The half-inhibitory concentration (IC50) in data set [20] worked out at 18 nM. Besides, the bioavailability in data set [21] is 55.1%.
In data set [22], `O=C[C@@H](C[C@H]1CCNC1=O)NC(=O)[C@H]1[C@@H]2CCC[C@@H]2CN1C(=O)OCc1ccccc1` registered an IC50 of 51 nM. Also, the EC50 in [6] amounted to 2560 nM; in data set [23], 5240 nM.
The compound `C[C@H](NC(=O)[C@@H](c1cccnc1)N(C(=O)C(Cl)Cl)c1ccc(-c2ccccc2)cc1)c1ccccc1` had an EC50 in data set [24] of 900 nM.
Turning to `O=c1c2cccc(Br)c2sn1-c1ccccc1`, the IC50 in data set [2] is above 100000 nM.
With `CNC(=O)c1cc(Br)cc([N+](=O)[O-])c1N[C@H]1CCCC[C@H]1NC(=O)c1cncc2cc(O)ccc12`, the IC50 in data set [3] worked out at 120000 nM.
